# Values of other authors, collected in US9134323B2, “Antibody that specifically binds to an epitope in the tureet region of a human Kir channel” (priority 2009, dated 2015).
# Where no end group is shown, it is not given here.
# How the values were obtained:
# Kir1.1 channels = biological target: T1, Kir1.1 channels (Homo sapiens, UniProt P48048)
# T1 sequence (P48048 1-391): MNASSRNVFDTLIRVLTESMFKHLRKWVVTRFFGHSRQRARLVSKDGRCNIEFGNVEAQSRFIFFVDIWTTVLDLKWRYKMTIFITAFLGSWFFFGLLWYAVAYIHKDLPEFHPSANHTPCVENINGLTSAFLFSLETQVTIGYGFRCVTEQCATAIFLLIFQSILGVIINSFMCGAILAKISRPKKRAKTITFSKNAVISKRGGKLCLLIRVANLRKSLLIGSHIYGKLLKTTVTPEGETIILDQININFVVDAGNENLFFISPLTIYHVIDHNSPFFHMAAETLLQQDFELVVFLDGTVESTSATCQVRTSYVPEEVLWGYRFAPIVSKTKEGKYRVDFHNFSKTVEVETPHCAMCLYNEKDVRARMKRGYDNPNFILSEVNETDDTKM
# [1] = biological target: T2, Kir2.1 wild-type channels (Homo sapiens, UniProt P63252); conditions: applied to the outside of cells expressing the wild-type channels; 10 mM
# T2 sequence (P63252 1-427): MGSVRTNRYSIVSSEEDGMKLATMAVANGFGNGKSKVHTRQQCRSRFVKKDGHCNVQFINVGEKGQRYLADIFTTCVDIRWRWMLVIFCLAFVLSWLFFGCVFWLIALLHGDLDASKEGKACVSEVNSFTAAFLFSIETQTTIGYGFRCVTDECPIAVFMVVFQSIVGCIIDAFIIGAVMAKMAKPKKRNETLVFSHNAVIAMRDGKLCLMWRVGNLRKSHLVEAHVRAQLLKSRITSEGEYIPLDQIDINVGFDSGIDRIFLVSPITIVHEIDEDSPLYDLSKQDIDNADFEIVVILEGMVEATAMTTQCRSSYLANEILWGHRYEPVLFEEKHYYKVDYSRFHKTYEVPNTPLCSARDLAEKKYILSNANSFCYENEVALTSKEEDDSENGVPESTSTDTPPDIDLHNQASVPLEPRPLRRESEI
# [2] = system: Kir2.1 channel, variable sequence mutated to be Kir3.4-like; conditions: turret variable sequence mutated to be Kir3.4-like
# Kir3.4 channels = biological target: T3, Kir3.4 channels (Homo sapiens, UniProt P48544+P48549)
# T3 sequence (P48544 1-419): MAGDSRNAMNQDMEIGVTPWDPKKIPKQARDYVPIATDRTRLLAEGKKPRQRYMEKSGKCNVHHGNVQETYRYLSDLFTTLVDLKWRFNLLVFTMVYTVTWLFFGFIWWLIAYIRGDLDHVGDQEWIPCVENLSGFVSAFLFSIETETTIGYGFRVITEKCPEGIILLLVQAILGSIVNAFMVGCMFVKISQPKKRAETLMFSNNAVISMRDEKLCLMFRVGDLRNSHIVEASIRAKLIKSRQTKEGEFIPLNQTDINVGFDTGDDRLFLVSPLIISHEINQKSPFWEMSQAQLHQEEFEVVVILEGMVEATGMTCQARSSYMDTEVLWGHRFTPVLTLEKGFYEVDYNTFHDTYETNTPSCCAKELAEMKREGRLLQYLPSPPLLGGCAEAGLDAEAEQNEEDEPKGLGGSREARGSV
# T3 sequence (P48549 1-501): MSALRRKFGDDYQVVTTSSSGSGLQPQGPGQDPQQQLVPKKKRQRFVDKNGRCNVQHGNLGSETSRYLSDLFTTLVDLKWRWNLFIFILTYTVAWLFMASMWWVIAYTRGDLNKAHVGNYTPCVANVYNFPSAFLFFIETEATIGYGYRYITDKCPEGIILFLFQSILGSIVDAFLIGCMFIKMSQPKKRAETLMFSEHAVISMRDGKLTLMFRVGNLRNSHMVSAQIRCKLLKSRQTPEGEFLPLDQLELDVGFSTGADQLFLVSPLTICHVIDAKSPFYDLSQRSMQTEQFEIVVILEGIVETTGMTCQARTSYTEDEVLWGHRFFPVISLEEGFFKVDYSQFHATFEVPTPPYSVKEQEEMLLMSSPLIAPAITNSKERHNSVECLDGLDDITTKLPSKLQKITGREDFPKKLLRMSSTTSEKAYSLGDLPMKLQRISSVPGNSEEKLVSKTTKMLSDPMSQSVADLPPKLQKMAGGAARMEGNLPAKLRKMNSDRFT
Molecule,inhibition of Kir1.1 channels (Kir1.1 channels),"single channel conductance in the blocked state (Kir1.1 channels; blocked state, reduced rather than inhibited all the way)",effect on currents [1],sensitivity of mutated Kir2.1 channel to the toxin [2],inhibition of Kir3.4 channels (Kir3.4 channels)
δ-dendrotoxin,inhibits,about 10%,–,–,–
N[C@@H](CCC(=O)N[C@@H](CS)C(=O)NCC(=O)O)C(=O)O [reduced glutathione],–,–,did not affect currents,–,–
"O[C@H](CS)[C@H](O)CS (racemic) [DTT, Dithiothreitol]",–,–,did not affect currents,–,–
"tertiapin (ALCNCNRIIIPHMCWKKCGKK; ends and bridges not checked; cysteine pairing not given here; UniProt P56587 1-21, looked up)",inhibits,–,–,becomes sensitive,inhibits
